Where two headings read alike, the source gives them in different places.
Tests used:
HL-60 cells = test: Nitroblue Tetrazolium (NBT) cell differentiation assay; format: cell-based; settings: Homo sapiens, unit from concentration axis
Source text: Supplementary file 43556_2020_7_MOESM1_ESM.pdf: Additional file 1: Supplementary Fig. 1. […] Suplementary Fig. 2. […] Supplementary Fig. 3. Nitroblue Tetrazolium (NBT) cell differentiation assay. […] Supplementary Fig. 4. Representative data from human PBMC assay. […] Similar results were obtained from two different donors.

hTLR4 = molecular target: T1, hTLR4 (Homo sapiens, UniProt O00206+Q9Y6Y9); test: HEK-Blue hTLR4 SEAP reporter agonist assay; format: cell-based; settings: HEK-Blue hTLR4 cells, highest concentration 50 μM
T1 construct: host or cells: HEK-Blue hTLR4
T1 sequence (O00206 24-839): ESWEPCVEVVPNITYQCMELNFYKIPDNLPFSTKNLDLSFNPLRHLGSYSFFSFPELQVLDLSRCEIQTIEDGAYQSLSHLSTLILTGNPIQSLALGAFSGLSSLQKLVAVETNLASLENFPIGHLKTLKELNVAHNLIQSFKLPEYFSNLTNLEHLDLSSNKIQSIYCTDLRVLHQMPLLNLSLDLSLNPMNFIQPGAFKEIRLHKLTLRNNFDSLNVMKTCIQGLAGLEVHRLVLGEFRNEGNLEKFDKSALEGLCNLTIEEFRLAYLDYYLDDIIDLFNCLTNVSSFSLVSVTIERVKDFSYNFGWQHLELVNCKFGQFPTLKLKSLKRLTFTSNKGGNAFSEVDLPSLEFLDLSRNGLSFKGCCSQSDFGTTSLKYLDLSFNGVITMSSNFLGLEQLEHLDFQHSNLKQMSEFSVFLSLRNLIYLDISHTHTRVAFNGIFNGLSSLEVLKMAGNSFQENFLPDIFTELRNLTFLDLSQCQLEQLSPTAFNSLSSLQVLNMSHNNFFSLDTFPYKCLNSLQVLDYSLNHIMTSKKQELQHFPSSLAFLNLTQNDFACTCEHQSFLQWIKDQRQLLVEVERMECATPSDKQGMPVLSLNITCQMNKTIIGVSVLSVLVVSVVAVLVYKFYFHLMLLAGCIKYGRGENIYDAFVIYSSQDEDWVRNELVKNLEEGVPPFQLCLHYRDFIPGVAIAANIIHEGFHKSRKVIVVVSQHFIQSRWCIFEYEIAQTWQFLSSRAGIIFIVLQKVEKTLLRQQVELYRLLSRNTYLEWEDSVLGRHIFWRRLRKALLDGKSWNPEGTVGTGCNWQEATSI
T1 sequence (Q9Y6Y9 17-160 limits assumed): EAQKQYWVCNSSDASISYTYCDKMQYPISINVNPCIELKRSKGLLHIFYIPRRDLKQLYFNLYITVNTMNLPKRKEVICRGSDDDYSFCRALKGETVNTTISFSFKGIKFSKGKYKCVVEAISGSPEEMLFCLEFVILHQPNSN
Source text: HEK-Blue™ hTLR4, 7, 8 and 9 cell lines were purchased from InvivoGen (Hong Kong). The cells express the human TLR gene and NF-κB/AP-1-inducible SEAP (secreted embryonic alkaline phosphatase) reporter gene. SEAP levels produced upon TLR stimulation can be determined by QUANTI-Blue™. In the cell-based assay, the main reagents used were QUANTI-Blue™ (InvivoGen) and ATPlite 1 Step (Perkin Elmer). The main instruments used were the microplate reader SpectraMax 340PC (Molecular Device) and Envision (Perkin Elmer). Motolimod and DN052 were synthesized in house. […] The compounds were in 10 mM stock solution in DMSO and stored at − 20°C. The compounds were serially diluted in the concentration range from 0.5 nM to 15 μM (up to 50 μM in the hTLR4, hTLR7 and hTLR9 assays) and added to 96-well plates. DMSO was used as the negative control. LPS-EK, R848, motolimod and ODN2006 were used as the positive control for TLR4, 7, 8 and 9, respectively. The cells were cultured and treated with the compounds at 37°C, 5%CO2 for 24 h. […] After 1.5 h of incubation, the optical density was measured using the spectrophotometer at 650 nm in the microplate reader of SpectraMax 340PC. The cell viability of each well was determined using ATPlite 1 Step following the manufacturer’s instruction. The luminescence signal in each well of plates was measured in the microplate reader of Envision.

[1] = parameters: method as in Northfelt, et al., [39]; settings: human, sc 0.1 mg/m^2; ref Northfelt, et al., [39]; cited from earlier work
in vivo = test: in vivo; parameters: species or system cynomolgus monkeys; settings: cynomolgus, cynomolgus monkey, sc, 1 mg/kg
Procedure: To determine the in vivo pharmacokinetic profiles, the compounds were formulated with 11% captisol and then administered iv, ip, sc and po into Sprague Dawley rats or iv and sc into mice or cynomolgus monkeys, respectively. Blood samples were collected before dosing and 0.083 h, 0.25 h, 0.5 h, 1 h, 2 h, 4 h, 6 h, 8 h, 12 h and 24 h after dosing. Blood samples were collected in tubes containing K2EDTA. Plasma was isolated from the blood samples by centrifugation of the blood samples at 2400 × g for 5 min at 4°C. Plasma samples were measured using LC-MS/MS (Waters ACQUITY UPLC and TQ 6500+) to determine the concentration of compounds. The data was analyzed using WinNonlin 7.0 to calculate the PK parameters such as AUC0-t, AUC0-∞, MRT0-∞, Cmax, Tmax, t1/2 and F.

[2] = system: HL-60 human acute promyelocytic leukemia (AML) cells; test: Human HL-60 AML mouse xenograft model; format: in vivo; settings: HL-60 AML xenograft, NOD/SCID mice, 1.3 mg/kg sc once a week
Procedure: All the animal experiments were conducted following Association for Assessment and Accreditation of Laboratory Animal Care (AAALAC)‘s guideline. The animal protocols were approved by the Institutional Animal Care and Use Committee (IACUC). Cell lines were purchased from credible vendors including ATCC. After tumor cell inoculation, the animals were checked daily for morbidity and mortality. At the time of routine monitoring, the animals were checked for any effects of tumor growth and treatment on the animals’ well-being such as mobility, food and water consumption, body weight gain/loss, matting and any other abnormalities. Clinical observations were recorded. Tumor volumes were measured twice a week in two dimensions using a caliper and the volume was expressed in mm^3 using the formula: V = 0.5 a × b^2 where a and b are the long and short diameters of the tumor, respectively. The procedures of dosing as well as tumor and body weight measurement were conducted in a laminar flow cabinet.
For HL-60 experiment, HL-60 human acute promyelocytic leukemia (AML) cells were cultured in vitro in suspension in RPMI1640 medium supplemented with 10% fetal bovine serum and 1% penicillin/streptomycin at 37°C in an atmosphere of 5% CO2 in air. The tumor cells were routinely passaged twice per week. The cells growing in the exponential growth phase were harvested and counted for tumor inoculation. […]

EC50 (HL-60 cells): 1430 nM
EC50 (hTLR4): > 50000 nM
AUC(0-inf) (in vivo): 270 ng·h/mL
AUC(0-t) (in vivo): 270 ng·h/mL
Cmax (in vivo): 80 ng/mL
MRT inf (in vivo): 2.95 h
Tmax (in vivo): 2 h
half-life (in vivo): 1.43 h
Structure (SMILES): CCCN(CCC)C(=O)C1=Cc2ccc(-c3ccc(C(=O)N4CCCC4)cc3)cc2N=C(N)C1 [Motolimod, motolimod]
AUC(0-t) [1]: 2.99 ng·h/mL
Cmax [1]: 1.52 ng/mL
Tmax [1]: 0.53 h
t1/2 [1]: 1.73 h
tumor growth inhibition (TGI) rate [2]: 17%

— PMC8607422, “Development of a novel TLR8 agonist for cancer immunotherapy” (Molecular Biomedicine, 2020)
